# Measured values published in patent publication US5117830A, “Method of determining viability of tissue” (priority 1990, dated 1992).
# Where two headings read alike, the source gives them in different places.
# Tests used:
# [1] = test system: rat heart rate and blood pressure; assay: In vivo rat heart rate and blood pressure
# Experimental: Rats were anesthetized with urethan and blood pressure was monitored via a carotid cannula. Drug injections were made intravenously through a jugular cannula. Blood pressure, EGC, and heart rate were recorded on a Grass polygraph.
# [2] = cited from earlier work
# patients = conditions: in vivo; cited from earlier work
# coronary artery = conditions: cited from earlier work
# A2 receptors [3] = biological target: T1, A2 receptors (Rattus norvegicus, UniProt P30543); assay: Antagonism of NECA-stimulated adenylate cyclase in rat PC12 membranes; format: biochemical; conditions: read-out: KB vs NECA Stimulation (Adenylate Cyclase), A2 Effects; (B) Rat PC12 Membranes
# T1 construct: NECA-stimulated adenylate cyclase
# T1 sequence (P30543 whole entry): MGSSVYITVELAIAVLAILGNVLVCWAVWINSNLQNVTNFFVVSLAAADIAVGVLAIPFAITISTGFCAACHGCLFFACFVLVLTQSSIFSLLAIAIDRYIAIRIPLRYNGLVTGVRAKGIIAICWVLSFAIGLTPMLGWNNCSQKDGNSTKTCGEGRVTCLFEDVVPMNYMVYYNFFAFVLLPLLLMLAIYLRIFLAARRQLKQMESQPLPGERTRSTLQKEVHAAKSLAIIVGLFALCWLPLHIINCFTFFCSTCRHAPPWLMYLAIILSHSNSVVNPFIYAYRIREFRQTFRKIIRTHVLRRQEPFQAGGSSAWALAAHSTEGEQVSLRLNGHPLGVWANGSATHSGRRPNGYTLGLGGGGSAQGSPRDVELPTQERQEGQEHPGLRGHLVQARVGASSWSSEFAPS
# Experimental: For activity at A1 receptors, compounds were tested as inhibitors of the binding of N^6 -R-[^3 H]-Phenylisopropyladenosine in rat brain membranes and for their ability to prevent R-PIA-induced inhibition of adenylate cyclase in rat fat cell membranes. For activity at A2 receptors, compounds were tested as antagonists of NECA-stimulated adenylate cyclase in membranes of human platelets and rat PC12 cells.
# A2 receptors [4] = biological target: T2, A2 receptors (Homo sapiens, UniProt P29274); assay: Antagonism of NECA-stimulated adenylate cyclase in human platelet membranes; format: biochemical
# T2 construct: membranes of human platelets; from tissue; host or cells: human platelets (membranes)
# T2 sequence (P29274 whole entry): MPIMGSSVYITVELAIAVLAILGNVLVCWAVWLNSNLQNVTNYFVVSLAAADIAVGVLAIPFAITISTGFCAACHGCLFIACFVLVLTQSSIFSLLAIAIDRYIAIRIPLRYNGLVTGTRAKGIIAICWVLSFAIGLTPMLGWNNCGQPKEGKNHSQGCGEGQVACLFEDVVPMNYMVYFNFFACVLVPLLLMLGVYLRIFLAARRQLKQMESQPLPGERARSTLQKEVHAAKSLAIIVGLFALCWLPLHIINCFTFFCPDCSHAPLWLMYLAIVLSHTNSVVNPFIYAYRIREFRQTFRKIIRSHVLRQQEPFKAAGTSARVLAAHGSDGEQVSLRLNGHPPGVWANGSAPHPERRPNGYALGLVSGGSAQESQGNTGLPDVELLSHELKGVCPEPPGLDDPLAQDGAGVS
# A1 receptors [5] = biological target: T3, A1 receptors (Rattus norvegicus, UniProt P25099); assay: Prevention of R-PIA-induced inhibition of adenylate cyclase in rat fat cell membranes; format: biochemical
# T3 sequence (P25099 1-326): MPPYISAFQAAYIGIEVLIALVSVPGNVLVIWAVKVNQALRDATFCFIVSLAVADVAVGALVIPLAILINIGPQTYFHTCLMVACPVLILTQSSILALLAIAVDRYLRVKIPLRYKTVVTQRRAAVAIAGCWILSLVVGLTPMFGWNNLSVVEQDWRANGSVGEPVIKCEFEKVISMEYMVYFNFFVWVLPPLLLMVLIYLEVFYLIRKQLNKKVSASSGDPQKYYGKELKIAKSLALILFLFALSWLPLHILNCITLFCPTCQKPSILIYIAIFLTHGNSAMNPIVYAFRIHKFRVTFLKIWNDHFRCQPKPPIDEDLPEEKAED
# Experimental: (§1) For activity at A1 receptors, compounds were tested as inhibitors of the binding of N^6 -R-[^3 H]-Phenylisopropyladenosine in rat brain membranes and for their ability to prevent R-PIA-induced inhibition of adenylate cyclase in rat fat cell membranes.
# A1 receptors [6] = biological target: T3, A1 receptors; assay: Inhibition of N^6 -R-[^3 H]-phenylisopropyladenosine binding in rat brain membranes; design: rat brain membranes; from tissue; host or cells: rat brain (membranes); conditions: for Ki: (D) Rat Brain Membranes, read-out: Ki vs [^3 H] PIA (Binding), A1 Effects
# Experimental: as §1
# adenosine receptors = conditions: cited from earlier work
# A1 adenosine receptors = biological target: T4, A1 adenosine receptors (Cavia porcellus, UniProt P47745); assay: Antagonism of adenosine agonists in reducing force of contraction of guinea pig atrium (A1); conditions: for competitive antagonism at adenosine receptors in the atria / basal force of contraction in the atria: guinea pig atria
# T4 construct: The left atria from male guinea pigs were isolated; from tissue; host or cells: guinea pig left atrium (whole tissue in organ bath)
# T4 sequence (P47745 1-326): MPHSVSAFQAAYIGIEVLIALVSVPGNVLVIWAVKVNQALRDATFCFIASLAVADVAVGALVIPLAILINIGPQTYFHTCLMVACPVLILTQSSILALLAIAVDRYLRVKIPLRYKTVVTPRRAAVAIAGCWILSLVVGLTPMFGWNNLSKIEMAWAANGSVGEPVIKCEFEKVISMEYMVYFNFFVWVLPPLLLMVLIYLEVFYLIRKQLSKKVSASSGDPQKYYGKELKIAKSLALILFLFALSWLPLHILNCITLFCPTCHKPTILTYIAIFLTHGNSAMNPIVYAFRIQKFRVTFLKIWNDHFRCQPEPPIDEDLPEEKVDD
# Experimental: The left atria from male guinea pigs were isolated, suspended between two punctate electrodes, and placed in a 20 ml organ bath that contained Krebs-Hensileit solution that was continuously gassed with 95% O2 +5% CO2 and maintained at 31° C. The resting tension was one gram. The atria were stimulated electrically at 1 Hz, 1 msec duration pulses at supramaximal voltage. The force of contraction was recorded isometrically.
# (§2) The ability of the compounds to antagonize the effects of agonists was analyzed using modified Schild plots.
# A2 adenosine receptors = assay: Antagonism of adenosine agonists in decreasing contractile tone of guinea pig taenia caecum (A2); conditions: for antagonism of the effects of adenosine agonists in relaxing the taenia caecum: guinea pig taenia caecum; for selectivity for A1 adenosine receptors: lack of competitive antagonism in taenia caecum
# Experimental: Taenia from the guinea pig caecum were cut into lengths of 1.5-2 cm. The tissues were suspended in a 20 ml organ bath containing de Jalon's solution that was gassed with 95% O2 +5% CO2 and maintained at 31° C. The resting tension was 1.5 g. The contractile response was measured isotonically.
# as §2
# A2 receptors [7] = conditions: vs N^6 -substituted analogs; cited from earlier work
# [8] = test system: rat cortical A1 receptors; assay: Displacement of [^3 H]-CHA from rat cortical A1 receptors; format: binding; conditions: Table 4
# Experimental: Varying concentrations of test compounds were incubated with the appropriate radioligand and membrane source for 1 hr at room temperature.
# Assays were terminated by filtration over Whatman GF/B filters that had been pre-soaked with 0.1% polyethyleneimine using a 24 port Brandell cell hawester. The filters were washed three times with 3 ml of ice cold buffer and transferred to plastic scintillation vials to which 4 ml of Beckman Ready-Protein scintillation cocktail was added. The tubes were shaken and counted in a Beckman 3801 scintillation counter that converted cpm to dpm.
# Data were analyzed by utilizing the Ligand commercial computer program (Munson and Rodbard, 1980).
# Male Sprague Dawley rats were killed by decapitation and the brains removed. The cerebral cortices were homogenized in 50 mm Tris; 2mm MgCl2 (pH 7.4), and centrifuged at 40,000×g for 10 minutes. […] The homogenate was centrifuged, washed once, resuspended to a protein concentration of 5-10 mg/ml and frozen at -70° C. until use.
# [9] = anesthetized rats, high doses of adenosine
# [10] = prior administration, NECA as agonist
compound,measurement,setting,value
"Nc1ncnc2c1ncn2[C@@H]1O[C@H](CO)[C@@H](O)[C@H]1O [Adenosine, reference compound]",heart block,[1]; [9],"At high doses, adenosine causes heart block"
same,P-R interval of the ECG,"[1]; anesthetized rats, intravenous",concomitant increase in the P-R interval
same,blood pressure,"[1]; anesthetized rats, intravenous",dose dependent decrease in blood pressure
same,heart rate,"[1]; anesthetized rats, intravenous",dose dependent decrease in blood pressure and heart rate
same,half-life,[2]; in vivo,less than two
same,side effects,patients,"a number of cardiovascular, respiratory, central nervous system, and gastrointestinal side effects"
same,"heart rate, ventilation and airway resistance",coronary artery,"increases heart rate, and stimulates ventilation but does not alter airway resistance"
same,vasodilation / coronary blood flow,coronary artery,"potent vasodilator, except in the kidney"
N^6 -Methylcylopentyl-9-MA,Kb,A2 receptors [3],56 µM
same,Kb,"A2 receptors [4]; read-out: KB vs NECA Stimulation (Adenylate Cyclase), A2 Effects, (A) Human Platelet Membranes",45 µM
same,Kb,"A1 receptors [5]; (C) Rat Fat Cell Membranes, read-out: KB vs PIA INHIBITION (Adenylate Cyclase), A1 Effects",9 µM
same,Ki,A1 receptors [6],2.5 µM
Cn1c(=O)c2c(ncn2C)n(C)c1=O [caffeine],antagonism at adenosine receptors,adenosine receptors,best known antagonists at adenosine receptors
"Cn1cnc2c(NC3CCCC3)ncnc21 [compound 0840, N^6-cyclopentyl-9-MA]",potency relative to 9-methyladenine at A2 receptors,A2 receptors [4]; human platelet assay,fivefold more potent
same,competitive antagonism at adenosine receptors in the atria,A1 adenosine receptors,competitive antagonists
same,antagonism of the effects of adenosine agonists in relaxing the taenia caecum,A2 adenosine receptors,did not competitively antagonize
same,selectivity for A1 adenosine receptors,A2 adenosine receptors,selective for A1 adenosine receptors
same,Ki,A1 receptors [6],0.54 µM
same,potency relative to 9-methyladenine at A1 receptors,A1 receptors [6]; A1 receptors,at least 100 fold
"Cn1c(=O)c2[nH]c(-c3ccccc3)nc2n(C)c1=O [8-phenyltheophylline (8-PT), 8-phenyltheophylline, reference compound]",receptor selectivity,adenosine receptors,non-selective adenosine receptor antagonist
same,antagonism of the effects of adenosine agonists in relaxing the taenia caecum,A2 adenosine receptors,did antagonize the effects of agonists at low concentrations
same,sensitization of the tissue,"A2 adenosine receptors; high concentrations, larger response to agonist",Sensitization is also observed when using high concentrations
"CCNC(=O)[C@H]1O[C@@H](n2cnc3c(N)ncnc32)[C@H](O)[C@@H]1O [NECA, 5'-N-ethylcarboxamido-adenosine]",potency at A2 receptors,A2 receptors [7],more potent than N^6 -substituted analogs
"Cn1cnc2c(N[C@H]3C[C@H]4CC[C@@H]3C4)ncnc21 (relative stereo) [compound 0861, N^6-(endo-2-norbornyl)-9-MA]","effects of subsequently administered adenosine on all parameters (blood pressure, heart rate, P-R interval)","[1]; anesthetized rats, antagonist given before adenosine",attenuated the effects of subsequently administered adenosine on all parameters measured
same,adenosine-induced heart block,[1]; [9],substantially reduced
same,NECA-induced decrease in blood pressure,[1]; [10],minimally affecting the NECA-induced decrease in blood pressure
same,effects of NECA on the heart,[1]; [10],attenuated the effects of NECA on the heart
same,selectivity in vivo,[1]; rat,cardioselective adenosine receptor antagonist in vivo
same,selectivity for A1 receptors over A2 receptors,[8],170 fold
same,A1 /A2,[8]; ratio of Ki values,5.89 × 10^-3
same,selectivity towards the A1 adenosine receptor / rank of potency,A1 adenosine receptors; Table 2 compounds,the most potent antagonist
same,competitive antagonism at adenosine receptors in the atria,A1 adenosine receptors,competitive antagonists
same,antagonism of the effects of adenosine agonists in relaxing the taenia caecum,A2 adenosine receptors,did not competitively antagonize
same,selectivity for A1 adenosine receptors,A2 adenosine receptors,selective for A1 adenosine receptors
CCC(Cc1cccs1)Nc1ncnc2c1ncn2C (stereo not drawn) [N^6-1-(2-thienyl)-2-butyl-9-MA],basal force of contraction in the atria,A1 adenosine receptors,increases in basal force of contraction
same,competitive antagonism at adenosine receptors in the atria,A1 adenosine receptors,competitive antagonists
"C[C@@H](Cc1ccccc1)Nc1ncnc2c1ncn2C [compound 0986, N^6 -S-1-phenyl-2-propyl-9-MA]",Kb,A1 receptors [5],23 µM
"OCCN(CCO)c1nc(N2CCCCC2)c2nc(N(CCO)CCO)nc(N3CCCCC3)c2n1 [Dipyridamole, dipyridamole]",half-life compared with adenosine,[2]; dipyridamole,significantly longer half-life
same,side effects,patients,"rare but potentially serious side effects which include myocardial ischemia, cardiac arrhythmia, and sudden death"
same,vasodilation / coronary blood flow,coronary artery,increase in coronary blood flow
CCC(CC)Nc1ncnc2c1ncn2C [N^6-3-Pentyl-9-MA],basal force of contraction in the atria,A1 adenosine receptors,increases in basal force of contraction
same,competitive antagonism at adenosine receptors in the atria,A1 adenosine receptors,competitive antagonists
same,antagonism of the effects of adenosine agonists in relaxing the taenia caecum,A2 adenosine receptors,did not competitively antagonize
same,selectivity for A1 adenosine receptors,A2 adenosine receptors,selective for A1 adenosine receptors
Cn1cnc2c(NC3CCCCC3)ncnc21 [N^6 -Cyclohexyl-9-MA],Ki,A1 receptors [6],0.94 µM
